Broadly, the fraction unbound is the share of the substance not bound to proteins or other matrix.

Series [1] in a line: Fraction unbound in Wistar Han rat brain homogenates at 1 uM after 6 hrs by equilibrium dialysis method. The settings on record: brain homogenate. Background: In equilibrium dialysis only unbound substance equilibrates across the membrane.
A short description of series [2]: Fraction unbound in Sprague-Dawley rat brain homogenates at 1 uM after 6 hrs by equilibrium dialysis method. The settings on record: brain homogenate.
Series [3] is described as follows: Fraction unbound in CD-1 mouse brain homogenates at 1 uM after 6 hrs by equilibrium dialysis method. Particulars: brain homogenate.
Series [4] in a line: Fraction unbound in Hartley guinea pig brain homogenates at 1 uM after 6 hrs by equilibrium dialysis method. Particulars: brain homogenate.
The nature of series [5]: Fraction unbound in Beagle dog brain homogenates at 1 uM after 6 hrs by equilibrium dialysis method. The settings on record: brain homogenate.
Series [6] is described as follows: Fraction unbound in cynomolgus monkey brain homogenates at 1 uM after 6 hrs by equilibrium dialysis method. The settings on record: brain homogenate.
Series [7] can be described thus: Fraction unbound in human occipital cortex at 1 uM after 6 hrs by equilibrium dialysis method.

As to `Cc1nc2n(c(=O)c1CCN1CCC(c3noc4cc(F)ccc34)CC1)CCCC2O` (stereo not drawn) [PALIPERIDONE], the fraction unbound at 6 h, 1 µM in series [1] came to 0.092; in series [2] it was 0.078; in series [3], 0.129; in series [4], 0.101; in series [5], 0.126; in series [6] it was 0.1. The same compound came in with a fraction unbound at 6 h, 1 µM in series [7] of 0.116.
On to `Fc1ccc([C@@H]2CCNC[C@H]2COc2ccc3c(c2)OCO3)cc1` [PAROXETINE], for which the fraction unbound at 6 h, 1 µM in series [1] is 0.004; in series [2], 0.006; in series [3] it was 0.004; in series [4], 0.003; in series [5] it was 0.004; in series [6], 0.006. The compound further yielded a fraction unbound at 6 h, 1 µM in series [7] of 0.005.
For the compound `O=C1NC(=O)C(c2ccccc2)(c2ccccc2)N1` [PHENYTOIN], the fraction unbound at 6 h, 1 µM is 0.1 in series [1]; 0.134 in series [2]; 0.088 in series [3]; 0.082 in series [4]; 0.259 in series [5]; 0.114 in series [6]. Further, in series [7], the fraction unbound at 6 h, 1 µM came out at 0.095.
`CO[C@H]1/C=C/O[C@@]2(C)Oc3c(C)c(O)c4c(O)c(c(/C=N/N5CCN(C)CC5)c(O)c4c3C2=O)NC(=O)/C(C)=C\C=C\[C@H](C)[C@H](O)[C@@H](C)[C@@H](O)[C@@H](C)[C@H](OC(C)=O)[C@@H]1C` [RIFAMPIN]: the fraction unbound at 6 h, 1 µM in series [1] came to 0.121; in series [2], 0.068; in series [3], 0.121; in series [4], 0.118; in series [5] it was 0.259; in series [6], 0.162. This compound also registered a fraction unbound at 6 h, 1 µM in series [7] of 0.119.
As to `Cc1c(C(=O)NN2CCCCC2)nn(-c2ccc(Cl)cc2Cl)c1-c1ccc(Cl)cc1` [RIMONABANT], the fraction unbound at 6 h, 1 µM in series [1] was found to be 0.0004; in series [2], 0.0006; in series [3] it was 0.0004; in series [4] it was 0.0004; in series [5], 0.0005; in series [6], 0.0006. Further, the fraction unbound at 6 h, 1 µM in series [7] worked out at 0.0005.
On to `CCN(C)C(=O)Oc1cccc([C@H](C)N(C)C)c1` [RIVASTIGMINE], for which the fraction unbound at 6 h, 1 µM is 0.338 in series [1]; 0.241 in series [2]; 0.341 in series [3]; 0.389 in series [4]; 0.487 in series [5]; 0.316 in series [6]. The compound further yielded a fraction unbound at 6 h, 1 µM in series [7] of 0.345.
With `O=C(O[C@H]1CN2CCC1CC2)N1CCc2ccccc2[C@@H]1c1ccccc1` [SOLIFENACIN], the fraction unbound at 6 h, 1 µM in series [1] turned out to be 0.019; in series [2], 0.015; in series [3], 0.016; in series [4], 0.014; in series [5], 0.018; in series [6], 0.016. Also, the fraction unbound at 6 h, 1 µM in series [7] came out at 0.017.
As for `CC(C)(C)NCC(O)COc1ccc(NC(=O)NC2CCCCC2)cc1` (stereo not drawn) [TALINOLOL], the fraction unbound at 6 h, 1 µM in series [1] is 0.141; in series [2], 0.096; in series [3] it was 0.117; in series [4], 0.117; in series [5], 0.247; in series [6] it was 0.176. The compound further yielded a fraction unbound at 6 h, 1 µM in series [7] of 0.137.
Regarding `CC(CC(c1ccccc1)c1ccccc1)NC(C)(C)C` (stereo not drawn) [TERODILINE], the fraction unbound at 6 h, 1 µM amounted to 0.025 in series [1]; 0.02 in series [2]; 0.049 in series [3]; 0.059 in series [4]; 0.148 in series [5]; 0.071 in series [6]. In addition, in series [7], the fraction unbound at 6 h, 1 µM is 0.028.
As for `Cc1ccc(C(=O)c2cc(O)c(O)c([N+](=O)[O-])c2)cc1` [TOLCAPONE], the fraction unbound at 6 h, 1 µM in series [1] was determined as 0.001; in series [2], 0.007; in series [3] it was 0.002; in series [4] it was 0.002; in series [5], 0.05; in series [6] it was 0.003. The compound further had a fraction unbound at 6 h, 1 µM in series [7] of 0.003.
As for `O=c1n(CCCN2CCN(c3cccc(Cl)c3)CC2)nc2ccccn12` [TRAZODONE], the fraction unbound at 6 h, 1 µM amounted to 0.085 in series [1]; 0.062 in series [2]; 0.086 in series [3]; 0.059 in series [4]; 0.066 in series [5]; 0.082 in series [6]. For the same compound, in series [7], the fraction unbound at 6 h, 1 µM was 0.077.
As to `CN1[C@@H]2CC[C@H]1C[C@@H](OC(=O)c1c[nH]c3ccccc13)C2` [TROPISETRON], the fraction unbound at 6 h, 1 µM in series [1] turned out to be 0.056; in series [2], 0.045; in series [3] it was 0.059; in series [4], 0.048; in series [5], 0.047; in series [6], 0.064. The compound also came in with a fraction unbound at 6 h, 1 µM in series [7] of 0.053.
Regarding `CC(=O)CC(c1ccccc1)c1c(O)c2ccccc2oc1=O` (stereo not drawn) [WARFARIN], the fraction unbound at 6 h, 1 µM was determined as 0.183 in series [1]; 0.199 in series [2]; 0.094 in series [3]; 0.326 in series [4]; 0.384 in series [5]; 0.318 in series [6]. For the same compound, the fraction unbound at 6 h, 1 µM in series [7] stood at 0.295.
For `NS(=O)(=O)Cc1noc2ccccc12` [ZONISAMIDE], the fraction unbound at 6 h, 1 µM in series [1] was found to be 0.327; in series [2], 0.598; in series [3], 0.299; in series [4] it was 0.389; in series [5], 0.428; in series [6], 0.386. Moreover, in series [7], the fraction unbound at 6 h, 1 µM is 0.308.
